In brackets after ≈: the same amount, converted by molar mass. Several values for one entry are separate records, joined by “and”; a condition that tells them apart may be missing. Identical values can stand only once. Like-named read-outs stand apart in the source and are kept apart here.
Experiments:
[1] = target: Mycobacterium tuberculosis RNA polymerase (Mycobacterium tuberculosis, UniProt P9WGY7+P9WGY9); assay: Run-off transcription assay with Mycobacterium tuberculosis RNA polymerase (radiochemical); format: biochemical
Method: Run-off transcription assays with Mycobacterium tuberculosis RNA polymerase were performed using reaction mixtures containing (10 μl): 0-100 μM test compound, 75 nM Mycobacterium tuberculosis RNA polymerase core enzyme, 300 nM Mycobacterium tuberculosis σ^A, 20 nM 130 bp DNA fragment containing positions −100 to −1 of the bacteriophage […] N25 promoter followed by positions +1 to +30 of the lacUV5-15 promoter of [Mukhopadhyay, J., Kapanidis, A., Mekler, V., Kortkhonjia, E., Ebright, Y., Ebright, R. (2001) Cell 106, 453-463], 25 nM [alpha-^32P]UTP (600 Bq/pmol) for an initial 2 min at 37° C. and 100 μM [alpha-^32P]UTP (6 Bq/pmol) for a subsequent 5 min at 37° C., 100 μM ATP, 100 μM GTP, 100 μM UTP, 100 μM CTP, 40 mM Tris-HCl, pH 8.0, 80 mM NaCl, 5 mM MgCl2, 2.5 mM DTT, and 12.7% glycerol. Reactions were terminated by addition of […] 80% formamide, 10 mM EDTA, 0.04% bromophenol blue, and 0.04% xylene cyanol, followed by heating for 5 min at 90° C. Reaction products were resolved by 15% urea-PAGE, and quantified using a storage-phosphor scanner.

[2] = tested on: Vero E6 ATCC CRL1586 cells; assay: Mammalian-cell cytotoxicity, minimal cytotoxic concentration (CellTiter96); format: cell-based
Method: Minimal cytotoxic concentrations (MCCs) against mammalian cells in culture were determined using Vero E6 ATCC CRL1586 cells and the CellTiter96 assay kit (Promega, Inc.). […]

[3] = tested on: Mycobacterium smegmatis ATCC 19420; assay: Broth microdilution MIC, M. smegmatis; format: cell-based; settings: Mycolicibacterium smegmatis
Excerpt: (§1) MICs in Mycobacterium smegmatis ATCC 19420 and Mycobacterium smegmatis ATCC 19420 derivatives were quantified using broth microdilution assays as described [Clinical and Laboratory Standards Institute (CLSI/NCCLS) (2009) Methods for Dilution Antimicrobial Susceptibility Tests for Bacteria That Grow Aerobically; Approved Standard, Eighth Edition. CLIS Document M07-A8 (CLIS, Wayne Pa.)].

[4] = tested on: Mycobacterium tuberculosis H37Rv; assay: Microplate Alamar Blue assay (MABA) MIC, M. tuberculosis; format: cell-based
Excerpt: (§2) Minimal inhibitory concentrations (MICs) in Mycobacterium tuberculosis H37Rv and Mycobacterium avium ATCC 25291 were quantified using microplate Alamar Blue assays as described (MABA; [Collins, L. & Franzblau, S. (1997) Microplate Alamar Blue assay versus BACTEC 460 system for high-throughput screening of compounds against Mycobacterium tuberculosis and Mycobacterium avium. Antimicrob. Agents Chemother. 41, 1004-1009]).

[5] = tested on: Mycobacterium avium ATCC 25291; assay: Microplate Alamar Blue assay (MABA) MIC, M. avium; format: cell-based; settings: ATCC25291, M. avium ATCC 25291
Excerpt: as §2

[6] = tested on: AAP1-resistant mutants, derivatives of M. smegmatis ATCC19420; assay: MICs in AAP1-resistant mutants (resistance and cross-resistance levels); format: cell-based, Mycobacterium smegmatis; settings: MICs in AAP1-resistant mutants
[7] = tested on: rifampin-resistant mutants, derivatives of M. smegmatis ATCC19420; assay: MICs in rifampin-resistant mutants (cross-resistance levels); format: cell-based, Mycobacterium smegmatis
Excerpt: as §1

[8] = radiochemical transcription assays, M. tuberculosis RNA polymerase, read-out: Inhibition of mycobacterial RNA polymerase (IC50s)
[9] = ATCC19420, M. smegmatis ATCC 19420, read-out: MIC Mycobacterium smegmatis ATCC 19420
[10] = read-out: MIC Mycobacterium tuberculosis H37Rv
[11] = IC50 Mycobacterium tuberculosis RNA polymerase
[12] = MABA-MIC assays, read-out: Inhibition of mycobacterial growth in culture (MICs)
[13] = Inhibition of mycobacterial RNA polymerase (IC50s), radiochemical transcription assays, M. tuberculosis RNA polymerase
[14] = ATCC19420, broth microdilution assays, M. smegmatis ATCC19420, read-out: Inhibition of mycobacterial growth in culture (MICs)

Chain of Mycobacterium tuberculosis RNA polymerase (P9WGZ1 whole entry, the tested form may be a part): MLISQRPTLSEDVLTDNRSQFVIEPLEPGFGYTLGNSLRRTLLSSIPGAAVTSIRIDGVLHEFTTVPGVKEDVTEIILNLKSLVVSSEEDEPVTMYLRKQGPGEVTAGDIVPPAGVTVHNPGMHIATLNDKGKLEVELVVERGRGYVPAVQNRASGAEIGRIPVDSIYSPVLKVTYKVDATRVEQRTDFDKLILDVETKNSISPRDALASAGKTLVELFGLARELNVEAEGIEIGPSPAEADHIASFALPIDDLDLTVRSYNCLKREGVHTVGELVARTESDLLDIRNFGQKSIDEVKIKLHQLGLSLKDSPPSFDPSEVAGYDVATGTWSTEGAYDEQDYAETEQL
Chain of Mycobacterium tuberculosis RNA polymerase (P9WGY5 whole entry, further chain, the tested form may be a part): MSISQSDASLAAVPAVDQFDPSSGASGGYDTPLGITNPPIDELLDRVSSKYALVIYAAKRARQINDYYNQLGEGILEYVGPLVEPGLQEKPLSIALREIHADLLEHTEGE
Chain of Mycobacterium tuberculosis RNA polymerase (P9WGY9 whole entry, the tested form may be a part): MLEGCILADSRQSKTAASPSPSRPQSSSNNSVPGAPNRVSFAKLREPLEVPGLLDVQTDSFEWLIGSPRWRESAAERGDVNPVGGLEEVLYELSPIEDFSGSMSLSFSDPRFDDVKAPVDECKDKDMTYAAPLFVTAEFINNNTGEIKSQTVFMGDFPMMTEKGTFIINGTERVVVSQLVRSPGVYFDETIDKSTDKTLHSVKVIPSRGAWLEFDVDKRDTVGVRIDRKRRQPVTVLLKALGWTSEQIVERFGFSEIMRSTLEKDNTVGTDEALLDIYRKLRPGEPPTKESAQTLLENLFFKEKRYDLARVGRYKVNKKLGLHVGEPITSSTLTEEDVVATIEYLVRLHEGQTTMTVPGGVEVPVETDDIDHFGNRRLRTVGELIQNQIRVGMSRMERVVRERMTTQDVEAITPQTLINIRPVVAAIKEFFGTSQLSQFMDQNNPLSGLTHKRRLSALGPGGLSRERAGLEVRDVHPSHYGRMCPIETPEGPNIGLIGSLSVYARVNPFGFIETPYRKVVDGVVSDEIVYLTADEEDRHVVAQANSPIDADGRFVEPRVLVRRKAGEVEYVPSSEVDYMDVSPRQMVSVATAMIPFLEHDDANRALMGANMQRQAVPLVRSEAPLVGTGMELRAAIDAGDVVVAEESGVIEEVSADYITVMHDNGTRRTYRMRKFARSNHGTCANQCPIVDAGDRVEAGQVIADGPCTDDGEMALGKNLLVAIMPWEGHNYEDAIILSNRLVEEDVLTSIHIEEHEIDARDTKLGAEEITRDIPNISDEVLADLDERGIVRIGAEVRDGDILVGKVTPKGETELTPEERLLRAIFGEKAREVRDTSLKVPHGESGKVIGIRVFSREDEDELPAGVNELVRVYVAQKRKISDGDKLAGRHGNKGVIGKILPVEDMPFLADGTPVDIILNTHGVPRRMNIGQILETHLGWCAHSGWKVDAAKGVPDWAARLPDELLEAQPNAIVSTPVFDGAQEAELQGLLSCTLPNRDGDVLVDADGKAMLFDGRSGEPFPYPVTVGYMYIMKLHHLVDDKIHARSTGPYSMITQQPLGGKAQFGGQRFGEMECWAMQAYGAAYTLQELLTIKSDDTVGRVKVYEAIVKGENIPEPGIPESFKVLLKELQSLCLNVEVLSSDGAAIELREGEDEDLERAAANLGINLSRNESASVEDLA
Chain of Mycobacterium tuberculosis RNA polymerase (P9WGI1 whole entry, further chain, the tested form may be a part): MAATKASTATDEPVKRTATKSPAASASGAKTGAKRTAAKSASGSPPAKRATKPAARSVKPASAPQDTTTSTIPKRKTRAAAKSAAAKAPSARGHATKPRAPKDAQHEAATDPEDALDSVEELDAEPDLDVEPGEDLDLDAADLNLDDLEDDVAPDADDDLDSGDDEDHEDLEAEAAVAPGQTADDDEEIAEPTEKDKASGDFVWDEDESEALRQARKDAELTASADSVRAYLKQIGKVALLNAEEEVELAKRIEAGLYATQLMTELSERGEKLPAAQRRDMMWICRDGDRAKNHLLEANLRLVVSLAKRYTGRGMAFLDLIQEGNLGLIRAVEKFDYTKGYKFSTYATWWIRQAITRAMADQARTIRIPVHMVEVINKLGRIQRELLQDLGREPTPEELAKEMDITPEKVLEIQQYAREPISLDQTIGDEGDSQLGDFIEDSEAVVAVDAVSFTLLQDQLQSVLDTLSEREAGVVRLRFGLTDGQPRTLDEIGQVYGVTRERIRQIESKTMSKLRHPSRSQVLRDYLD
Chain of Mycobacterium tuberculosis RNA polymerase (P9WGY7 whole entry, the tested form may be a part): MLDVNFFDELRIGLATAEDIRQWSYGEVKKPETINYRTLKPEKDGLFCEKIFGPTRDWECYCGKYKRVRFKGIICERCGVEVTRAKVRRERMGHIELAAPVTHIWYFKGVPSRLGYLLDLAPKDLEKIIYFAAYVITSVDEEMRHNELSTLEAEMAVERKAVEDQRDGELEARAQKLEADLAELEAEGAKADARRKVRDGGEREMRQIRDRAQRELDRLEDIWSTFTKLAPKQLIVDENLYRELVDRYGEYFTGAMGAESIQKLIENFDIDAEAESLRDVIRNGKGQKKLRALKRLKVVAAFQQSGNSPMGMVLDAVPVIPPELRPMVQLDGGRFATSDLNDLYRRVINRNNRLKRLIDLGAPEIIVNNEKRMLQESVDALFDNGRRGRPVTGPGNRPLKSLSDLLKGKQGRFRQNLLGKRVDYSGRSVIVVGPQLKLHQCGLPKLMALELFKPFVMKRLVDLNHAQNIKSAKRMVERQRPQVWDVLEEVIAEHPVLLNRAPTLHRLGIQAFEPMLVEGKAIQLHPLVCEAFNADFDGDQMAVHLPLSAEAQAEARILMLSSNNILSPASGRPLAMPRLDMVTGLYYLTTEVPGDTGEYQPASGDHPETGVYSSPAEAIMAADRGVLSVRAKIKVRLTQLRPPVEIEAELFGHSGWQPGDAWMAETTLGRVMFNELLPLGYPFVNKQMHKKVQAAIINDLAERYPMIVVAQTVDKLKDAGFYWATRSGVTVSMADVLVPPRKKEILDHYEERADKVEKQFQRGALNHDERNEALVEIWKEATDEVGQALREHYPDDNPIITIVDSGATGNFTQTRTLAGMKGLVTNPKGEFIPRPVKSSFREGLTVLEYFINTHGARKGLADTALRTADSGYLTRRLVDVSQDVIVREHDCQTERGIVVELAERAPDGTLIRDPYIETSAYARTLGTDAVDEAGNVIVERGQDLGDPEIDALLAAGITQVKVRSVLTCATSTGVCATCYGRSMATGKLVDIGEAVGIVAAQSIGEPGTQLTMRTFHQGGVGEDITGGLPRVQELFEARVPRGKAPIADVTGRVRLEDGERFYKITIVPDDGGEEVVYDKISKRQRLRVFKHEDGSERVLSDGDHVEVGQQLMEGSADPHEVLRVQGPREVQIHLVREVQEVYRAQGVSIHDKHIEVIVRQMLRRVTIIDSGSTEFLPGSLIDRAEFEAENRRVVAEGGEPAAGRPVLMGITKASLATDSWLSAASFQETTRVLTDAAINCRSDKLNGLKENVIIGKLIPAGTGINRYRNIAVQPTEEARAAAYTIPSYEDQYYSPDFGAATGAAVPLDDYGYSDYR

| Compound | MCC mammalian cells Vero E6 ATCC CRL1586 [2] | MIC [3, 9] | MIC [4, 10] | IC50 [1, 11] | MIC [5] | also measured |
| --- | --- | --- | --- | --- | --- | --- |
| O=C(Nc1ccccn1)[C@H](Cc1ccccc1)Nc1ccccc1 | – | – | – | – | – | IC50 [1, 8]: ≥ 100 nM and ~1000 nM |
| O=C(NC(Cc1ccccc1)C(=O)Nc1cc(F)ccc1N1CCNCC1)c1ccccc1Br (stereo not drawn) [IX-315, 2-bromo-N-(1-((5-fluoro-2-(piperazin-1-yl)phenyl)amino)-1-oxo-3-phenylpropan-2-yl)benzamide] | 12.5 µg/mL | 0.39 µg/mL (≈ 0.742 µM) | 3.12 µg/mL (≈ 5.95 µM) | 210 nM | 1.56 µg/mL (≈ 2.97 µM) | – |
| COc1ccc(F)cc1NC(=O)C(Cc1ccc(O)cc1)NC(=O)c1ccccc1F (stereo not drawn) [IX-204, 2-fluoro-N-(1-((5-fluoro-2-methoxyphenyl)amino)-3-(4-hydroxy-phenyl)-1-oxopropan-2-yl)benzamide] | 50 µg/mL | 0.39 µg/mL (≈ 0.915 µM) | 0.78 µg/mL (≈ 1.83 µM) | 390 nM | 1.56 µg/mL (≈ 3.66 µM) | – |
| O=C(NC(Cc1ccccc1)C(=O)Nc1cccc2scnc12)c1ccccc1 (stereo not drawn) [IX-235, N-(1-(benzo[d]thiazol-4-ylamino)-1-oxo-3-phenylpropan-2-yl)benz-amide] | – | 0.78 µg/mL (≈ 1.94 µM) | 3.12 µg/mL (≈ 7.78 µM) | – | 6.25 µg/mL (≈ 15.6 µM) | cross-resistance of AAP1-resistant mutants to the compound [6]: cross-resistance |
| O=C(NC(Cc1ccccc1)C(=O)Nc1cc(F)ccc1N1CCNCC1)c1ccccc1 (stereo not drawn) [IX-245, N-(1-((5-fluoro-2-(piperazin-1-yl)phenyl)amino)-1-oxo-3-phenyl-propan-2-yl)benzamide] | 17 µg/mL | 0.39 µg/mL (≈ 0.873 µM) | 1.56 µg/mL (≈ 3.49 µM) | 220 nM | 0.78 µg/mL (≈ 1.75 µM) | – |
| Cc1ccc(NC(=O)C(Cc2ccccc2)NC(=O)c2ccco2)cc1 (stereo not drawn) [AAP2] | – | – | – | – | – | MIC [4, 12]: 50 µg/mL (≈ 144 µM); IC50 [1, 13]: 5300 nM |
| O=C(Nc1ccncc1)[C@H](Cc1ccccc1)Nc1ccccc1 [Nα-phenyl-N-(4-pyridyl)-phenylalaninamide] | – | – | – | – | – | MIC [3, 14]: ≥ 0.3 µg/mL; IC50 [1, 8]: ≥ 100 nM |
| Cc1ccc(Cl)cc1NC(=O)C(Cc1ccccc1)NC(=O)c1ccccc1 (stereo not drawn) [I-86] | 13 µg/mL | 0.195 µg/mL (≈ 0.496 µM) | 1.56 µg/mL (≈ 3.97 µM) | 920 nM | 3.12 µg/mL (≈ 7.95 µM) | cross-resistance of rifampin-resistant mutants to the compound [7]: No rifampin-resistant mutant was found to exhibit cross-resistance |
| NC1CCN(c2ccc(F)cc2NC(=O)C(Cc2ccccc2)NC(=O)c2ccccc2F)CC1 (stereo not drawn) [IX-312, N-(1-((2-(4-aminopiperidin-1-yl)-5-fluorophenyl)amino)-1-oxo-3-phenylpropan-2-yl)-2-fluorobenzamide] | – | 0.195 µg/mL (≈ 0.407 µM) | 3.13 µg/mL (≈ 6.54 µM) | – | 3.13 µg/mL (≈ 6.54 µM) | cross-resistance of AAP1-resistant mutants to the compound [6]: cross-resistance |
| O=C(Nc1ccccc1)[C@H](Cc1ccccc1)Nc1ccccc1 [Nα-phenyl-N-phenyl-phenylalaninamide] | – | – | – | – | – | MIC [3, 14]: ≥ 0.3 µg/mL; IC50 [1, 8]: ≥ 100 nM |
| O=C(Nc1ccccc1F)[C@H](Cc1ccccc1)Nc1ccccc1 [Nα-phenyl-N-(2-fluorophenyl)-phenylalaninamide] | – | – | – | – | – | MIC [3, 14]: ≥ 0.3 µg/mL; IC50 [1, 8]: ≥ 100 nM |
| CO[C@H]1/C=C/O[C@@]2(C)Oc3c(C)c(O)c4c(O)c(c(/C=N/N5CCN(C)CC5)c(O)c4c3C2=O)NC(=O)/C(C)=C\C=C\[C@H](C)[C@H](O)[C@@H](C)[C@@H](O)[C@@H](C)[C@H](OC(C)=O)[C@@H]1C [rifampin, reference compound] | – | – | – | – | – | MIC ([3]; ATCC19420, read-out: MIC with wild-type rpoB and wild-type rpoC, M. smegmatis ATCC19420 wild type, reference for AAP1-resistant mutants): 3.13 µg/mL (≈ 3.8 µM); cross-resistance of AAP1-resistant mutants to the compound [6]: No AAP1-resistant mutant was found to exhibit cross-resistance; hypersensitivity of AAP1-resistant mutants to the compound [6]: Some AAP1 resistant mutants were found to be hypersensitive |
| Cc1ccccc1NC(=O)[C@@H](Cc1ccccc1)NC(=O)c1ccccc1 [AAP1a, Nα-benzoyl-N-(2-methylphenyl)-D-phenylalaninamide] | – | – | – | – | – | MIC [3, 14]: 0.2 µg/mL (≈ 0.558 µM); MIC [4, 12]: 3.13 µg/mL (≈ 8.73 µM); IC50 [1, 13]: 130 nM |
| Cc1ccccc1NC(=O)C(Cc1cccc(O)c1)NC(=O)c1ccccc1 (stereo not drawn) [I-12] | >100 µg/mL | 3.12 µg/mL (≈ 8.35 µM) | > 50 µg/mL | 3500 nM | – | – |
| Cc1ccccc1NC(=O)C(Cc1ccccc1)NC(=O)c1ccccc1F (stereo not drawn) [I-80] | 43 µg/mL | 0.39 µg/mL (≈ 1.04 µM) | 3.12 µg/mL (≈ 8.29 µM) | 2800 nM | 6.25 µg/mL (≈ 16.6 µM) | cross-resistance of rifampin-resistant mutants to the compound [7]: No rifampin-resistant mutant was found to exhibit cross-resistance |
| O=C(NC(Cc1ccccc1)C(=O)Nc1ccccc1OCF)c1ccccc1 (stereo not drawn) [IX-27, N-(1-((2-(fluoromethoxy)phenyl)amino)-1-oxo-3-phenylpropan-2-yl)benzamide] | >100 µg/mL | 0.195 µg/mL (≈ 0.497 µM) | 1.56 µg/mL (≈ 3.98 µM) | 990 nM | 3.12 µg/mL (≈ 7.96 µM) | – |
| Cc1ccc(F)cc1NC(=O)C(Cc1ccccc1)NC(=O)c1ccccc1 (stereo not drawn) [I-75] | 4 µg/mL | 0.195 µg/mL (≈ 0.518 µM) | 1.56 µg/mL (≈ 4.14 µM) | 990 nM | 1.56 µg/mL (≈ 4.14 µM) | – |
| Cc1ccccc1NC(=O)[C@H](Cc1ccccc1)NC(=O)c1ccccc1 [AAP1b, Nα-benzoyl-N-(2-methylphenyl)-L-phenylalaninamide] | – | – | – | – | – | MIC [3, 14]: 1.56 µg/mL (≈ 4.35 µM); MIC [4, 12]: > 50 µg/mL; IC50 [1, 13]: 12000 nM |
| Cc1ccccc1NC(=O)C(Cc1ccccc1)NC(=O)c1ccccc1C (stereo not drawn) [I-112] | 13 µg/mL | 0.39 µg/mL (≈ 1.05 µM) | > 50 µg/mL | – | > 50 µg/mL | cross-resistance of rifampin-resistant mutants to the compound [7]: No rifampin-resistant mutant was found to exhibit cross-resistance |
| COc1ccc(F)cc1NC(=O)C(Cc1ccccc1)NC(=O)c1ccccc1F (stereo not drawn) [IX-276, 2-fluoro-N-(1-((5-fluoro-2-methoxyphenyl)amino)-1-oxo-3-phenyl-propan-2-yl)benzamide] | – | 0.39 µg/mL (≈ 0.95 µM) | 0.16 µg/mL (≈ 0.39 µM) | – | 0.78 µg/mL (≈ 1.9 µM) | cross-resistance of AAP1-resistant mutants to the compound [6]: cross-resistance |
| O=C(NC(Cc1ccccc1)C(=O)Nc1ccccc1N1CCOCC1)c1ccccc1 (stereo not drawn) [I-181] | >100 µg/mL | 0.073 µg/mL (≈ 0.17 µM) | 0.78 µg/mL (≈ 1.82 µM) | 400 nM | 6.25 µg/mL (≈ 14.6 µM) | – |
| Cc1ccccc1N[C@@H](Cc1ccccc1)C(=O)Nc1ccccc1 [Nα-(2-methylphenyl)-N-phenyl-phenylalaninamide] | – | – | – | – | – | MIC [3, 14]: ≥ 0.3 µg/mL; IC50 [1, 8]: ≥ 100 nM |
| Cc1c(NC(=O)C(Cc2ccccc2)NC(=O)c2ccccc2)cccc1C(F)(F)F (stereo not drawn) [I-160] | 21 µg/mL | 3.12 µg/mL (≈ 7.33 µM) | > 50 µg/mL | – | > 50 µg/mL | cross-resistance of rifampin-resistant mutants to the compound [7]: No rifampin-resistant mutant was found to exhibit cross-resistance |
| CCc1ccccc1NC(=O)C(Cc1ccccc1)NC(=O)c1ccccc1 (stereo not drawn) [I-115] | 37 µg/mL | 0.39 µg/mL (≈ 1.05 µM) | > 50 µg/mL | – | > 50 µg/mL | cross-resistance of rifampin-resistant mutants to the compound [7]: No rifampin-resistant mutant was found to exhibit cross-resistance |
| O=C(NC(Cc1ccccc1)C(=O)Nc1cccc2cc[nH]c12)c1ccccc1 (stereo not drawn) [II-28] | 13 µg/mL | 0.78 µg/mL (≈ 2.03 µM) | 12.5 µg/mL (≈ 32.6 µM) | – | > 50 µg/mL | cross-resistance of rifampin-resistant mutants to the compound [7]: No rifampin-resistant mutant was found to exhibit cross-resistance |
| O=C(NC(Cc1ccccc1)C(=O)Nc1cc(F)ccc1N1CC2CNCC2C1)c1ccccc1F (stereo not drawn) [IX-313, 2-fluoro-N-(1-((5-fluoro-2-(hexahydropyrrolo[3,4-c]pyrrol-2(1H)-yl)phenyl)amino)-1-oxo-3-phenylpropan-2-yl)benzamide] | – | 0.39 µg/mL (≈ 0.795 µM) | 1.56 µg/mL (≈ 3.18 µM) | – | 1.56 µg/mL (≈ 3.18 µM) | cross-resistance of AAP1-resistant mutants to the compound [6]: cross-resistance |
